Our source for the IC50 values is US11655246B2, “Aminothiazole compounds as inhibitors of CTPS1” (STEP PHARMA S.A.S., priority 2017, dated 2023).

Several values for one entry are separate records, joined by “and”; a condition that tells them apart may be missing. Identical values can stand only once.

The target in the first test is T1, human CTPS1 (Homo sapiens, UniProt P17812).
T1 construct: purchased Proteros biostructures GmbH
T1 sequence (P17812 1-591): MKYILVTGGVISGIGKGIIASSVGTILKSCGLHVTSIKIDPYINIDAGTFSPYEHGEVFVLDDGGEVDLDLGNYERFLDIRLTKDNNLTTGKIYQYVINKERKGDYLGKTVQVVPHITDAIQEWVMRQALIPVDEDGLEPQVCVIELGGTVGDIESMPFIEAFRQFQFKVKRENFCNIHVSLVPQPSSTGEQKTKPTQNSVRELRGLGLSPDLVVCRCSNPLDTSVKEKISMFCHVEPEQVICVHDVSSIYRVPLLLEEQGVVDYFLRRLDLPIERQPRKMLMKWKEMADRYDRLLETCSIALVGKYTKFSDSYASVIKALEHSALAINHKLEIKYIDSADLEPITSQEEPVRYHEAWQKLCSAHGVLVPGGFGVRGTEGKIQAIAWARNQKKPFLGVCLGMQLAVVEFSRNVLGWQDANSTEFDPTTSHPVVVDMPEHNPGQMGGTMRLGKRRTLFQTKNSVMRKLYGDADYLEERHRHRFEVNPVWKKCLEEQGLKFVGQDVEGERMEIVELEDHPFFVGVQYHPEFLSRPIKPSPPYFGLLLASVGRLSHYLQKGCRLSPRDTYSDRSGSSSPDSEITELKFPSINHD
Briefly: Human CTPS1 enzyme inhibition (ADP-Glo Max assay). It is filed as biochemical. To be noted: Table 17, 25° C., read-out: CTPS1 (Human CTPS1 Enzyme Inhibition data grouped by potency range). The procedure:
The enzyme inhibitory activities of compounds invented against the target of interest were determined using the ADP-Glo™ Max assay (Promega, UK). Assays for human CTPS1 were performed in 1× assay buffer containing 50 mM Tris, 10 mM MgCl2, 0.01% Tween-20, pH to 8.0 accordingly. Finally, immediately before use, L-cysteine was added to the 1× assay buffer to a final concentration of 2 mM. All reagents are from Sigma-Aldrich unless specified otherwise.
3× human CTPS1 protein was prepared in 1× assay buffer to the final working protein concentration required for the reaction. A 2 uL volume per well of 3× human CTPS1 protein was mixed with 2 uL per well of 3× test compound (compound prepared in 1× assay buffer to an appropriate final 3× compound concentration respective to the concentration response curve designed for the compounds under test) for 10 minutes at 25° C. […] ADP-Glo™ Max reagent was added for 60 minutes (6 uL per well) and subsequently ADP-Glo™ Max development reagent was added for 60 minutes (12 uL per well) prior to signal detection in a microplate reader (EnVision® Multilabel Reader, Perkin Elmer). Following each reagent addition over the course of the assay, assay plates were pulse centrifuged for 30 seconds at 500 rpm.
In all cases, the enzyme converts ATP to ADP and the ADP-Glo™ Max reagent subsequently depletes any remaining endogenous ATP in the reaction system. The ADP-Glo™ Max detection reagent converts the ADP that has been enzymatically produced back into ATP and using ATP as a substrate together with luciferin for the enzyme luciferase, light is generated which produces a detectable luminescence. […] The percentage inhibition produced by each concentration of compound was calculated using the equation shown below: […]
For orientation: ADP-Glo turns the ADP formed in a reaction into a luminescent signal.
Turning to `CCC(C(=O)Nc1ccc(-c2cncc(C#N)n2)cn1)c1csc(NS(=O)(=O)C2CC2)n1` (stereo not drawn) [T178], the IC50 lay within 1000 to 10000 nM. For the molecule `CCC(C(=O)Nc1ccc(-c2cncc(F)c2)cn1)c1csc(NS(=O)(=O)C2CC2)n1` (stereo not drawn) [T179], the IC50 was below 100 nM. Still for that read-out and setting: with `CCC(C(=O)Nc1ccc(-c2cncc(C#N)c2)cn1)c1csc(NS(=O)(=O)C2CC2)n1` (stereo not drawn) [T180] the figure was below 100 nM; with `CCC(C(=O)Nc1ccc(-c2ccccc2)cn1)c1csc(NS(=O)(=O)C2CC2)n1` (stereo not drawn) [T181], 100 to 1000 nM. For `CCC(C(=O)Nc1ccc(-c2cncc(OCC(F)(F)F)n2)cn1)c1csc(NS(=O)(=O)C2CC2)n1` (stereo not drawn) [T182], the IC50 is below 100 nM. On the same count and under the same terms, next, `CCOc1cncc(-c2cnc(NC(=O)C(CC)c3csc(NS(=O)(=O)C4CC4)n3)c(F)c2)n1` (stereo not drawn) [T183]: below 100 nM; `CCC(C(=O)Nc1ncc(-c2cncc(C#N)n2)cc1F)c1csc(NS(=O)(=O)C2CC2)n1` (stereo not drawn) [T184]: 1000 to 10000 nM; `CCC(C(=O)Nc1ccc(-c2cncc(OCC(F)(F)F)c2)cn1)c1csc(NS(=O)(=O)C2CC2)n1` (stereo not drawn) [T185]: < 100 nM and 100 to 1000 nM. Take `CCC(C(=O)Nc1ccc(-c2cncc(OC(F)F)c2)cn1)c1csc(NS(=O)(=O)C2CC2)n1` (stereo not drawn) [T186]: the IC50 is below 100 nM. As for `CCC(C(=O)Nc1ccc(-c2cncc(Cl)n2)cn1)c1csc(NS(=O)(=O)C2CC2)n1` (stereo not drawn) [T187], the IC50 was below 100 nM.

`CCOc1cncc(-c2ccc(NC(=O)C(CC)c3csc(NS(=O)(=O)C4CC4)n3)cc2)n1` (stereo not drawn) [T189]: the IC50 was below 100 nM. For `COCCC(C(=O)Nc1ccc(-c2cncc(OC)n2)cc1)c1csc(NS(=O)(=O)C2CC2)n1` (stereo not drawn) [T190], the IC50 was below 100 nM. As for `COCCC(C(=O)Nc1ccc(-c2cncc(F)c2)cc1)c1csc(NS(=O)(=O)C2CC2)n1` (stereo not drawn) [T191], the IC50 is below 100 nM. Consider `CCOc1cncc(-c2ccc(NC(=O)C(C)c3csc(NS(=O)(=O)C4CC4)n3)cc2)n1` (stereo not drawn) [T192], for which the IC50 is below 100 nM.

Consider `CCC(C(=O)Nc1ccc(-c2cncc(C(F)(F)F)c2)cc1)c1csc(NS(=O)(=O)C2CC2)n1` (stereo not drawn) [T193], for which the IC50 is below 100 nM. On the same count and under the same terms, next, `CCC(C(=O)Nc1ccc(-c2cncc(C#N)c2)cc1)c1csc(NS(=O)(=O)C2CC2)n1` (stereo not drawn) [T194]: below 100 nM.

Turning to `CCC(C(=O)Nc1ccc(-c2cncc(OCC(F)(F)F)n2)cc1)c1csc(NS(=O)(=O)C2CC2)n1` (stereo not drawn) [T195], the IC50 was below 100 nM.

Take `CCC(C(=O)Nc1ccc(-c2cnccn2)cc1F)c1csc(NS(=O)(=O)C2CC2)n1` (stereo not drawn) [T196]: the IC50 was below 100 nM. The same measure, in the same setting: next, `CCC(C(=O)Nc1ccc(-c2cncc(C(F)(F)F)n2)cc1F)c1csc(NS(=O)(=O)C2CC2)n1` (stereo not drawn) [T197]: below 100 nM; `CCOc1cncc(-c2ccc(NC(=O)C(CC)c3csc(NS(=O)(=O)C4CC4)n3)c(F)c2)n1` (stereo not drawn) [T198]: below 100 nM. On the same count and under the same terms, next, `CCOc1cncc(-c2ccc(NC(=O)C(CC)c3csc(NS(=O)(=O)C4CC4)n3)c(F)c2)c1` (stereo not drawn) [T199]: below 100 nM; `CCC(C(=O)Nc1ccc(-c2cncc(F)c2)cc1F)c1csc(NS(=O)(=O)C2CC2)n1` (stereo not drawn) [T200]: below 100 nM; `CCC(C(=O)Nc1ccc(-c2cccnc2)cc1F)c1csc(NS(=O)(=O)C2CC2)n1` (stereo not drawn) [T201]: below 100 nM. Still for that read-out and setting: with `CCC(C(=O)Nc1ccc(-c2cncc(C#N)c2)cc1F)c1csc(NS(=O)(=O)C2CC2)n1` (stereo not drawn) [T202] the figure was below 100 nM.

As for `CCC(C(=O)Nc1ccc(-c2cncc(Cl)c2)cc1F)c1csc(NS(=O)(=O)C2CC2)n1` (stereo not drawn) [T203], the IC50 was below 100 nM. The same measure, in the same setting: with `CCOc1cncc(-c2ccc3c(c2)CCN3C(=O)C(CC)c2csc(NS(=O)(=O)C3CC3)n2)n1` (stereo not drawn) [T206] the figure was below 100 nM.

`CCC(C(=O)Nc1ccc(-c2cncc(OCC(F)(F)F)n2)cc1F)c1csc(NS(=O)(=O)C2CC2)n1` (stereo not drawn) [T207]: the IC50 was below 100 nM. Turning to `CCC(C(=O)Nc1ccc(-c2cncc(OC)n2)cc1F)c1csc(NS(=O)(=O)C2CC2)n1` (stereo not drawn) [T208], the IC50 is below 100 nM. Same read-out and setting: with `CCC(C(=O)Nc1ccc(-c2cncc(OC(F)F)c2)cc1F)c1csc(NS(=O)(=O)C2CC2)n1` (stereo not drawn) [T209] the figure was below 100 nM. On the same count and under the same terms, with `CCC(C(=O)Nc1ccc(-c2cncc(OC(F)F)c2)cc1)c1csc(NS(=O)(=O)C2CC2)n1` (stereo not drawn) [T210] the figure was below 100 nM.

Take `CCC(C(=O)Nc1ccc(-c2cncc(OCC(F)(F)F)c2)cc1)c1csc(NS(=O)(=O)C2CC2)n1` (stereo not drawn) [T211]: the IC50 is < 100 nM and 100 to 1000 nM. Same read-out and setting: with `CCC(C(=O)Nc1ccc(-c2cncc(OCC(F)(F)F)c2)cc1F)c1csc(NS(=O)(=O)C2CC2)n1` (stereo not drawn) [T212] the figure was below 100 nM; with `O=C(Nc1ccc(-c2cccnc2)cc1)C1CCc2sc(NS(=O)(=O)C3CC3)nc21` (stereo not drawn) [T213], 100 to 1000 nM. The same measure, in the same setting: next, `COC(C(=O)Nc1ccc(-c2cncc(C(F)(F)F)n2)cn1)c1csc(NS(=O)(=O)C2CC2)n1` (stereo not drawn) [T214]: below 100 nM; `N#Cc1cncc(-c2ccc(NC(=O)C3CCc4sc(NS(=O)(=O)C5CC5)nc43)cc2)c1` (stereo not drawn) [T217]: below 100 nM; `O=C(Nc1ccc(-c2cncc(F)c2)cc1)C1CCc2sc(NS(=O)(=O)C3CC3)nc21` (stereo not drawn) [T218]: 100 to 1000 nM. The same measure, in the same setting: with `COC(C(=O)Nc1ccc(-c2cccnc2)cc1)c1csc(NS(=O)(=O)C2CC2)n1` (stereo not drawn) [T219] the figure was below 100 nM; with `COC(C(=O)Nc1ccc(-c2cccnc2)cc1F)c1csc(NS(=O)(=O)C2CC2)n1` (stereo not drawn) [T220], below 100 nM; with `CCC(C(=O)Nc1ccc(-c2cccnc2)cc1Cl)c1csc(NS(=O)(=O)C2CC2)n1` (stereo not drawn) [T221], below 100 nM. With `CC(C)(C(=O)Nc1ccc(-c2cnccn2)cc1F)c1csc(NS(=O)(=O)C2CC2)n1` [T274], the IC50 was below 100 nM.

As to `Cc1ncc(-c2ccc(NC(=O)C(C)(C)c3csc(NS(=O)(=O)C4CC4)n3)cc2)nc1Cl` [T277], the IC50 lay within 100 to 1000 nM. Same read-out and setting: with `CCC(C(=O)Nc1ccc(-c2cncc(C3CC3)n2)cc1)c1csc(NS(=O)(=O)C2CC2)n1` (stereo not drawn) [T291] the figure was below 100 nM.

Regarding `Cc1sc(NS(=O)(=O)C2CC2)nc1C(C)(C)C(=O)Nc1ccc(-c2cncc(Cl)c2)cc1` [T314], the IC50 was in the range of 100 to 1000 nM.

With `CCC(C(=O)N(C)c1ccc(-c2cccnc2)cc1)c1csc(NS(=O)(=O)C2CC2)n1` (stereo not drawn) [T315], the IC50 lay within 100 to 1000 nM. Still for that read-out and setting: with `CCC(C(=O)N(C)c1ccc(-c2cncc(C#N)c2)cc1)c1csc(NS(=O)(=O)C2CC2)n1` (stereo not drawn) [T316] the figure was 100 to 1000 nM. On to `CCOc1cncc(-c2ccc(NC(=O)C(C)(C)c3nc(NS(=O)(=O)C4CC4)sc3C)cc2)n1` [T317], for which the IC50 fell in the range of 100 to 1000 nM.

The same test, now with this note: Table 18, additional potency data, 25° C., read-out: CTPS1 (Human CTPS1 Enzyme Inhibition data grouped by potency range).
For the molecule `CCOc1cncc(-c2ccc(NC(=O)C(NC(C)=O)c3csc(NS(=O)(=O)C4CC4)n3)cc2)n1` (stereo not drawn) [T326, 2-acetamido-2-(2-(cyclopropanesulfonamido)thiazol-4-yl)-N-(4-(6-ethoxypyrazin-2-yl)phenyl)acetamide], the IC50 was below 100 nM. On the same count and under the same terms, next, `CCOc1cncc(-c2ccc(NC(=O)C(NC(=O)OC)c3csc(NS(=O)(=O)C4CC4)n3)cc2)n1` (stereo not drawn) [T327, methyl (1-(2-(cyclopropanesulfonamido)thiazol-4-yl)-2-((4-(6-ethoxypyrazin-2-yl)phenyl)amino)-2-oxoethyl)carbamate]: below 100 nM; `CCOc1cncc(-c2ccc(NC(=O)C(c3csc(NS(=O)(=O)C4CC4)n3)N(C)C)cc2)n1` (stereo not drawn) [T328, 2-(2-(cyclopropanesulfonamido)thiazol-4-yl)-2-(dimethylamino)-N-(4-(6-ethoxypyrazin-2-yl)phenyl)acetamide]: below 100 nM; `CCOc1cncc(-c2ccc(NC(=O)C(CCO)c3csc(NS(=O)(=O)C4CC4)n3)cc2)n1` (stereo not drawn) [T329, 2-(2-(cyclopropanesulfonamido)thiazol-4-yl)-N-(4-(6-ethoxypyrazin-2-yl)phenyl)-4-hydroxybutanamide]: below 100 nM.

In the case of `COCCS(=O)(=O)Nc1nc(C(C)(C)C(=O)Nc2ccc(-c3cncc(C(F)(F)F)n3)cn2)cs1` [T332, 2-(2-((2-methoxyethyl)sulfonamido)thiazol-4-yl)-2-methyl-N-(5-(6-(trifluoromethyl)pyrazin-2-yl)pyridin-2-yl)propanamide], the IC50 lay in the range of 100 to 1000 nM.
